In patent US11365204B2, “Substituted dihydrothienopyrimidines and their use as phosphodiesterase inhibitors” (UNION therapeutics A/S, priority 2017, dated 2022):

Experiments:
[1] = molecular target: human PDE4D catalytic domain (UniProt no. Q08499 [S380-L740]) (Homo sapiens (Human), UniProt Q08499); experiment: PDE4 assay (TR-FRET, cAMP hydrolysis); assay type: biochemical; conditions: read-out: PDE4 IC50 range
Method: The human PDE4D catalytic domain (UniProt no. Q08499 [S380-L740]) was incubated with a mixture of non-labelled cAMP (cyclic adenosine monophosphate) and fluorescein amidite (FAM) conjugated cAMP and titrated test or reference compound.
Following brief incubation the enzymatic reaction was stopped by addition of binding buffer containing nanoparticles with immobilized trivalent metal ions capable of binding 1) AMP phospho groups and 2) terbium (Tb) donor fluorophores. Subsequent excitation of the Tb donor triggered time-resolved FRET to adjacent FAM acceptor molecules resulting in light emission. In the presence of a PDE4 inhibitor, AMP generation was reduced resulting in a lower fluorescence signal. The cAMP phosphodiester is not bound by the detection system.
Results were expressed as IC50 values (nM) calculated from inhibition curves where the TR-FRET signal was normalized to Tb fluorescence intensity and the negative (DMSO vehicle) and positive (10 microM a PDE4 inhibitor reference compound) controls.

[2] = tested on: Human peripheral blood mononuclear cells (PBMC); experiment: TNF-α release from LPS-stimulated PBMC; assay type: cell-based; conditions: Lipopolysaccharide 1 microg/ml, 18 hours, AlphaLISA, read-out: TNF-α IC50 range
Method: Human peripheral blood mononuclear cells (PBMC) were isolated from fresh buffy coats by density centrifugation using lymphoprep tubes (Medinor). Frozen PBMC's were washed in serum free assay buffer (RPMI1640 with 25 mM HEPES, 1% pen/strep, […] L glutamine, 0.5% human serum albumin) and living cells counted. Lipopolysaccharide (1 microg/ml; SIGMA) was added to the cells which were then transferred to 384 well tissue culture plates ([…]) containing titrated test compounds. The cells were incubated for 18 hours at 37° C. in serum free assay buffer and the level of TNFalpha in the supernatant was quantitated by AlphaLISA (PerkinElmer) by measuring fluorescence intensity at 615 nm.
Results were expressed as IC50 values calculated from inhibition curves using as controls the secretion in LPS stimulated wells and the secretion in cells incubated with 10 microM of a PDE4 inhibitor reference compound.

Sequence of human PDE4D catalytic domain (Q08499 380-740): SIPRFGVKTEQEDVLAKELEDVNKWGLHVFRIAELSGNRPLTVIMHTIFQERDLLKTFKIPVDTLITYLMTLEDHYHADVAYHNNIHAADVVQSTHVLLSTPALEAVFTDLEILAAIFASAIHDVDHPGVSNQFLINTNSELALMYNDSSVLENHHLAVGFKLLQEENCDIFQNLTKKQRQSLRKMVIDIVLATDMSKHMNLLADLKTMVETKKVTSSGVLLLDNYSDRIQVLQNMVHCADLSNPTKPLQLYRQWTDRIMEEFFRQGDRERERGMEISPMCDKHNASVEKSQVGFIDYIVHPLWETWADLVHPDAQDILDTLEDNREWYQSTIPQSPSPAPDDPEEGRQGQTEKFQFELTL

| SMILES | IC50 [1] [nM] | IC50 [2] [nM] |
| --- | --- | --- |
| COCCC(=O)OC1CN(c2nc3c(c(N(C)C4CCOCC4)n2)[S+]([O-])CC3)C1 (centres unmarked) [Example 13, [1-[4-[methyl(tetra-hydropyran-4-yl)amino]-5-oxido-6,7-dihydro-thieno[3,2-d]pyrimidin-5-ium-2-yl]azetidin-3-yl] 3-methoxypropanoate] | 100 to 500 | 100 to 500 |
| CC(=O)N1CC[C@H](Nc2nc(N3CC(OC(=O)c4cscn4)C3)nc3c2[S@+](O)CC3)C1 [Example 73, [1-[4-[[(3S)-1-acetyl-pyrrolidin-3-yl]amino]-5-oxido-6,7-dihydro-thieno[3,2-d]pyrimidin-5-ium-2-yl]azetidin-3-yl]thiazole-4-carboxylate] | < 100 | 100 to 500 |
| COc1ccc(C(=O)OC2CN(c3nc4c(c(N(C)C5CCOCC5)n3)[S+]([O-])CC4)C2)cc1 (centres unmarked) [Example 42, [1-[4-[methyl(tetra-hydropyran-4-yl)amino]-5-oxido-6,7-dihydro-thieno[3,2-d]pyrimidin-5-ium-2-yl]azetidin-3-yl] 4-methoxybenzoate] | < 100 | < 100 |
| O=C(OC1CN(c2nc3c(c(NC4CCOCC4)n2)[S@@+]([O-])CC3)C1)c1cnsc1 [Example 1, [1-[(5R)-5-Oxido-4-(tetrahydropyran-4-ylamino)-6,7-dihydrothieno[3,2-d]pyrimidin-5-ium-2-yl]azetidin-3-yl] isothiazole-4-carboxylate] | < 100 | < 100 |
| CN(c1nc(N2CC(OC(=O)c3ccc(C(=O)N4CCOCC4)cc3)C2)nc2c1[S+](O)CC2)C1CCOCC1 (centres unmarked) [Example 61, [1-[4-[methyl(tetra-hydropyran-4-yl)amino]-5-oxido-6,7-dihydro-thieno[3,2-d]pyrimidin-5-ium-2-yl]azetidin-3-yl] 4-(morpholine-4-carbonyl)benzoate] | < 100 | < 100 |
| COC(=O)N1CCC(C(=O)OC2CN(c3nc4c(c(N(C)C5CCOCC5)n3)[S+](O)CC4)C2)CC1 (centres unmarked) [Example 52, O1-methyl O4-[1-[4-[methyl(tetrahydro-pyran-4-yl)amino]-5-oxido-6,7-dihydro-thieno[3,2-d]pyrimidin-5-ium-2-yl]azetidin-3-yl] piperidine-1,4-dicarboxylate] | < 100 | < 100 |
| CCN(c1nc(N2CC(OC(=O)c3cnsc3)C2)nc2c1[S+]([O-])CC2)C1CCOCC1 (centres unmarked) [Example 7, [1-[4-[Ethyl(tetrahydropyran-4-yl)amino]-5-oxido-6,7-dihydrothieno[3,2-d]pyrimidin-5-ium-2-yl]azetidin-3-yl] isothiazole-4-carboxylate] | 100 to 500 | 100 to 500 |
| Cc1nc(C(=O)OC2CN(c3nc4c(c(N(C)C5CCOCC5)n3)[S+]([O-])CC4)C2)cs1 (centres unmarked) [Example 35, [1-[4-[methyl(tetra-hydropyran-4-yl)amino]-5-oxido-6,7-dihydro-thieno[3,2-d]pyrimidin-5-ium-2-yl]azetidin-3-yl] 2-methylthiazole-4-carboxylate] | < 100 | < 100 |
| CC(C)S(=O)(=O)c1ccc(C(=O)OC2CN(c3nc4c(c(N(C)C5CCOCC5)n3)[S+]([O-])CC4)C2)cc1 (centres unmarked) [Example 60, [1-[4-[methyl(tetra-hydropyran-4-yl)amino]-5-oxido-6,7-dihydro-thieno[3,2-d]pyrimidin-5-ium-2-yl]azetidin-3-yl] 4-isopropylsulfonyl-benzoate] | < 100 | < 100 |
| Cc1nc(C(=O)OC2CN(c3nc4c(c(N(C)C5CCOCC5)n3)[S+]([O-])CC4)C2)co1 (centres unmarked) [Example 20, [1-[4-[methyl(tetra-hydropyran-4-yl)amino]-5-oxido-6,7-dihydro-thieno[3,2-d]pyrimidin-5-ium-2-yl]azetidin-3-yl] 2-methyloxazole-4-carboxylate] | < 100 | < 100 |
| CN(c1nc(N2CC(OC(=O)[C@H]3CC[C@@H](O)CC3)C2)nc2c1[S+](O)CC2)C1CCOCC1 (some centres unmarked) [Example 37, [1-[4-[methyl(tetra-hydropyran-4-yl)amino]-5-oxido-6,7-dihydro-thieno[3,2-d]pyrimidin-5-ium-2-yl]azetidin-3-yl] 4-hydroxycyclohexane-carboxylate] | < 100 | < 100 |
| CCS(=O)(=O)c1ccc(C(=O)OC2CN(c3nc4c(c(N(C)C5CCOCC5)n3)[S+]([O-])CC4)C2)cc1 (centres unmarked) [Example 57, [1-[4-[methyl(tetra-hydropyran-4-yl)amino]-5-oxido-6,7-dihydro-thieno[3,2-d]pyrimidin-5-ium-2-yl]azetidin-3-yl] 4-ethylsulfonylbenzoate] | < 100 | < 100 |
| Cc1ccccc1C(=O)OC1CN(c2nc3c(c(N(C)C4CCOCC4)n2)[S+]([O-])CC3)C1 (centres unmarked) [Example 24, [1-[4-[methyl(tetra-hydropyran-4-yl)amino]-5-oxido-6,7-dihydro-thieno[3,2-d]pyrimidin-5-ium-2-yl]azetidin-3-yl] 2-methylbenzoate] | < 100 | < 100 |
| CC(=O)N1CCC(C(=O)OC2CN(c3nc4c(c(N(C)C5CCOCC5)n3)[S+](O)CC4)C2)CC1 (centres unmarked) [Example 49, [1-[4-[methyl(tetra-hydropyran-4-yl)amino]-5-oxido-6,7-dihydro-thieno[3,2-d]pyrimidin-5-ium-2-yl]azetidin-3-yl] 1-acetylpiperidine-4-carboxylate] | < 100 | < 100 |
| Cc1cc(C(=O)OC2CN(c3nc4c(c(N(C)C5CCOCC5)n3)[S+]([O-])CC4)C2)nn1C (centres unmarked) [Example 31, [1-[4-[methyl(tetra-hydropyran-4-yl)amino]-5-oxido-6,7-dihydro-thieno[3,2-d]pyrimidin-5-ium-2-yl]azetidin-3-yl] l,5-dimethylpyrazole-3-carboxylate] | < 100 | < 100 |
| CC(=O)N1CCC(Nc2nc(N3CC(OC(=O)c4cscn4)C3)nc3c2[S+](O)CC3)CC1 (centres unmarked) [Example 76, [1-[4-[(1-acetyl-4-piperidyl)amino]-5-oxido-6,7-dihydrothieno[3,2-d]pyrimidin-5-ium-2-yl]-azetidin-3-yl] thiazole-4-carboxylate] | 100 to 500 | > 500 |
| CN(c1nc(N2CC(OC(=O)c3ccccc3F)C2)nc2c1[S+]([O-])CC2)C1CCOCC1 (centres unmarked) [Example 29, [1-[4-[methyl(tetra-hydropyran-4-yl)amino]-5-oxido-6,7-dihydro-thieno[3,2-d]pyrimidin-5-ium-2-yl]azetidin-3-yl] 2-fluorobenzoate] | < 100 | < 100 |
| CCn1ccc(C(=O)OC2CN(c3nc4c(c(N(C)C5CCOCC5)n3)[S+]([O-])CC4)C2)n1 (centres unmarked) [Example 30, [1-[4-[methyl(tetra-hydropyran-4-yl)amino]-5-oxido-6,7-dihydro-thieno[3,2-d]pyrimidin-5-ium-2-yl]azetidin-3-yl] 1-ethylpyrazole-3-carboxylate] | < 100 | < 100 |
| CN(c1nc(N2CC(OC(=O)[C@H]3CC[C@@H](O)CC3)C2)nc2c1[S+](O)CC2)C1CCOCC1 (some centres unmarked) [Example 38, [1-[4-[methyl(tetra-hydropyran-4-yl)amino]-5-oxido-6,7-dihydro-thieno[3,2-d]pyrimidin-5-ium-2-yl]azetidin-3-yl] 4-hydroxycyclohexane-carboxylate] | < 100 | < 100 |
